For data set [1], the system named is S. Typhimurium SL1344 (sifB::gfp) in RAW 264.7 macrophages. Kind of data set: SAFIRE macrophage assay: intracellular bacterial load (GFP signal within macrophages). It is filed as cell-based, Salmonella enterica serotype Typhimurium. As to conditions: 'Toxic' given instead of a score. An excerpt: (§1) In SAFIRE, we used MATLAB software to count the number of macrophages that remain adherent and retain the red fluorescence of MitoTracker, an indicator of voltage across the mitochondrial inner membrane. MATLAB then calculates the signal from bacteria (green fluorescent protein [GFP]) that overlaps with macrophages, as defined by MitoTracker, to estimate bacterial load. […] For example, we observed that the 6-trifluoropyrimidin-2-yl group on the right-hand side of EPM35 is apparently toxic to macrophages. Non-toxic analogs that reduced bacterial load by at least 60% at 5 µM and 25 µM in SAFIRE, as compared with DMSO, progressed and were evaluated in SAFIRE across eight or more concentrations, ranging from 0.001 µM to 50 µM (n = 2). […] Each of the top 13 analogs had at least an eightfold increase in potency and were not toxic for macrophages at 50 µM in the SAFIRE assay (Fig. 1C).
(§2) As previously described ([18]), RAW 264.7 macrophages (between passages 1 and 6) were grown in complete Dulbecco’s modified Eagle’s medium (DMEM) to approximately 70% to 90% confluence, scraped, washed, resuspended, diluted to 5 × 10^4 in 100 µL, and seeded in black, 96-well, glass-bottomed plates (Brooks Life Sciences catalog number MGB096-1-2-LG-L) at 37°C with 5% CO2. Twenty-four hours later, bacteria grown overnight in LB were diluted into 50 µL phosphate buffered saline (PBS) and added to a final concentration of 1 × 10^7 S. Typhimurium SL1344 (sifB::gfp) per milliliter ([78]) for an approximate multiplicity of infection of 30 bacteria per macrophage cell. Forty-five minutes after bacterial addition, gentamicin (Sigma catalog number G1264) was added to a final concentration of 40 µg/mL to inhibit the growth of remaining extracellular bacteria. Two hours after infection, gentamicin-containing medium was removed and replaced with 200 µL fresh DMEM with compound or DMSO (Sigma catalog number 276855) to the stated final concentrations. At 17.5 h after infection, PBS containing MitoTracker Red CMXRos (Life Technologies catalog number M7512), a vital dye for mitochondrial electric potential, was added to a final concentration of 100 nM. At 18 h after infection, 16% paraformaldehyde was added to a final concentration of 4% and incubated at room temperature for 15 min. Cells were washed twice with PBS and stained for 20 min with 1 µM 4′,6-diamidino-2-phenylindole (DAPI), a vital dye for double-stranded DNA, and stored in 90% glycerol in PBS until imaging. Samples were imaged in six fields of view per well using a semiautomated Yokogawa CellVoyager CV1000 confocal scanner system with a 20×, 0.75-numerical aperture (NA) objective. A MATLAB algorithm calculated bacterial accumulation (GFP fluorescence) within macrophages, as defined by DAPI and MitoTracker Red. GFP^+ macrophage area was defined as the number of GFP-positive pixels per macrophage divided by the total number of pixels per macrophage, averaged across all macrophages in the field ([34]).

The subject of the next data set is RAW 264.7 macrophages. Kind of data set: SAFIRE macrophage assay: host toxicity (adherent macrophage count, morphology). It is filed as cell-based.
Description: as §1, §2

For the compound `OC(COc1ccc(Cl)c(Cl)c1)CN1CCCN(c2nccc(C(F)(F)F)n2)CC1` (centres unmarked) [CU055], in data set [1], the “5 uM Avg Antibacterial Score” value is reported as “Toxic” and the “25 uM Avg Antibacterial Score” value was “Toxic”. In the data set on RAW 264.7 macrophages, the “5 uM Avg Cell # Score” value was 77 and the “25 uM Avg Cell # Score” value came out at 99.
For `CNC(=O)C1CCN(CC(O)COc2ccc(Cl)c(Cl)c2)CC1` (centres unmarked) [CU057], in data set [1], the “5 uM Avg Antibacterial Score” value amounted to 101 and the “25 uM Avg Antibacterial Score” value is listed as 93. Further, in the data set with RAW 264.7 macrophages, the “5 uM Avg Cell # Score” value is 85 and the “25 uM Avg Cell # Score” value is reported as 89.
In the same order, the values of `CN(C)C(=O)C1CCN(CC(O)COc2ccc(Cl)c(Cl)c2)CC1` (centres unmarked) [CU058] are 104, 72, 85 and 81.
For `CCN(CC)C(=O)C1CCN(CC(O)COc2ccc(Cl)c(Cl)c2)CC1` (centres unmarked) [CU059] the same measures were 97, 46, 105 and 88.
In the same order, the values of `O=C1CCCN1C1CCN(CC(O)COc2ccc(Cl)c(Cl)c2)CC1` (centres unmarked) [CU060] are 98, 83, 100 and 99.
As to `OC(COc1ccc(Cl)c(Cl)c1)CN1CCN(c2nccc(C(F)(F)F)n2)CC1` (centres unmarked) [CU061], in data set [1], the “5 uM Avg Antibacterial Score” value is reported as “Toxic” and the “25 uM Avg Antibacterial Score” value was “Toxic”. Moreover, in the data set with RAW 264.7 macrophages, the “5 uM Avg Cell # Score” value was found to be 74 and the “25 uM Avg Cell # Score” value is on record as 101.
Take `O=C(C1CCN(CC(O)COc2ccc(Cl)c(Cl)c2)CC1)N1CCCC1` (centres unmarked) [CU062]: in data set [1], the “5 uM Avg Antibacterial Score” value came out at 95 and the “25 uM Avg Antibacterial Score” value worked out at 48. Further, in the data set on RAW 264.7 macrophages, the “5 uM Avg Cell # Score” value is listed as 103 and the “25 uM Avg Cell # Score” value was found to be 145.
For `CC(=O)NC1CCN(CC(O)COc2ccc(Cl)c(Cl)c2)CC1` (centres unmarked) [CU063] the same measures were 102, 78, 107 and 119.
For `CC(=O)N(C)C1CCN(CC(O)COc2ccc(Cl)c(Cl)c2)CC1` (centres unmarked) [CU064], in data set [1], the “5 uM Avg Antibacterial Score” value is listed as 106 and the “25 uM Avg Antibacterial Score” value came out at 90. In the data set on RAW 264.7 macrophages, the “5 uM Avg Cell # Score” value was determined as 86 and the “25 uM Avg Cell # Score” value was found to be 82.
In the same order, the values of `NC(=O)C1CCN(CC(O)COc2ccc(Cl)c(Cl)c2)C1` (centres unmarked) [CU065] are 106, 90, 80 and 87.
As for `NC(=O)[C@H]1CC[C@@H](NCC(O)COc2ccc(Cl)c(Cl)c2)C1` (some centres unmarked) [CU066], in data set [1], the “5 uM Avg Antibacterial Score” value came out at 103 and the “25 uM Avg Antibacterial Score” value is reported as 100. In the data set with RAW 264.7 macrophages, the “5 uM Avg Cell # Score” value came out at 91 and the “25 uM Avg Cell # Score” value stood at 86.
Consider `NC(=O)N1CCN(CC(O)COc2ccc(Cl)c(Cl)c2)CC1` (centres unmarked) [CU067], for which, in data set [1], the “5 uM Avg Antibacterial Score” value was determined as 104 and the “25 uM Avg Antibacterial Score” value is listed as 101. Moreover, in the data set with RAW 264.7 macrophages, the “5 uM Avg Cell # Score” value amounted to 79 and the “25 uM Avg Cell # Score” value was 88.
For `O=C(NC1CCN(CC(O)COc2ccc(Cl)c(Cl)c2)C1)c1ccccc1` (centres unmarked) [CU068] the same measures were 20, “Toxic”, 80 and 49.
Regarding `CC(C)C(=O)NC1CCN(CC(O)COc2ccc(Cl)c(Cl)c2)C1` (centres unmarked) [CU069], in data set [1], the “5 uM Avg Antibacterial Score” value came to 95 and the “25 uM Avg Antibacterial Score” value is on record as 52. Further, in the data set with RAW 264.7 macrophages, the “5 uM Avg Cell # Score” value was 96 and the “25 uM Avg Cell # Score” value came out at 94.
For `OC(CNCCNc1nccc(C(F)(F)F)n1)COc1ccc(Cl)c(Cl)c1` (centres unmarked) [CU070] the same measures were “Toxic”, “Toxic”, 49 and 65.
In the same order, the values of `CC(=O)N(CCNc1nccc(C(F)(F)F)n1)CC(O)COc1ccc(Cl)c(Cl)c1` (centres unmarked) [CU071] are 85, “Toxic”, 62 and 56.
As for `CC(C)N(CCNc1nccc(C(F)(F)F)n1)CC(O)COc1ccc(Cl)c(Cl)c1` (centres unmarked) [CU072], in data set [1], the “5 uM Avg Antibacterial Score” value is recorded as “Toxic” and the “25 uM Avg Antibacterial Score” value was “Toxic”. Further, in the data set on RAW 264.7 macrophages, the “5 uM Avg Cell # Score” value is listed as 62 and the “25 uM Avg Cell # Score” value amounted to 94.
For `O=C(O)C1CCN(CC(O)COc2ccc(Cl)c(Cl)c2)CC1` (centres unmarked) [CU073], in data set [1], the “5 uM Avg Antibacterial Score” value is 102 and the “25 uM Avg Antibacterial Score” value is given as 101. Besides, in the data set with RAW 264.7 macrophages, the “5 uM Avg Cell # Score” value was 100 and the “25 uM Avg Cell # Score” value is listed as 140.
For `CCc1ccc(OCC(O)CN2CCC(Nc3nccc(C(F)(F)F)n3)CC2)cc1` (centres unmarked) [CU074] the same measures were 10, “Toxic”, 71 and 114.
In the same order, the values of `COC(=O)c1ccc(OCC(O)CN2CCC(Nc3nccc(C(F)(F)F)n3)CC2)cc1` (centres unmarked) [CU075] are 68, “Toxic”, 86 and 56.
As to `CC(=O)Nc1ccc(OCC(O)CN2CCC(Nc3nccc(C(F)(F)F)n3)CC2)cc1` (centres unmarked) [CU076], in data set [1], the “5 uM Avg Antibacterial Score” value turned out to be 102 and the “25 uM Avg Antibacterial Score” value is reported as 103. In the data set on RAW 264.7 macrophages, the “5 uM Avg Cell # Score” value is 79 and the “25 uM Avg Cell # Score” value stood at 86.
For `OC(COc1ccc(-c2ccccc2)cc1)CN1CCC(Nc2nccc(C(F)(F)F)n2)CC1` (centres unmarked) [CU077], in data set [1], the “5 uM Avg Antibacterial Score” value is 11 and the “25 uM Avg Antibacterial Score” value is “Toxic”. Moreover, in the data set with RAW 264.7 macrophages, the “5 uM Avg Cell # Score” value worked out at 35 and the “25 uM Avg Cell # Score” value stood at 114.
Regarding `OC(COc1ccc2ccccc2c1)CN1CCC(Nc2nccc(C(F)(F)F)n2)CC1` (centres unmarked) [CU078], in data set [1], the “5 uM Avg Antibacterial Score” value is recorded as 7.5 and the “25 uM Avg Antibacterial Score” value is “Toxic”. In the data set with RAW 264.7 macrophages, the “5 uM Avg Cell # Score” value was 87 and the “25 uM Avg Cell # Score” value is on record as 133.
As for `OC(COc1cccc2ccccc12)CN1CCC(Nc2nccc(C(F)(F)F)n2)CC1` (centres unmarked) [CU079], in data set [1], the “5 uM Avg Antibacterial Score” value was 6.41 and the “25 uM Avg Antibacterial Score” value is reported as “Toxic”. Further, in the data set with RAW 264.7 macrophages, the “5 uM Avg Cell # Score” value is on record as 86 and the “25 uM Avg Cell # Score” value is 89.
In the case of `OC(COc1ccc2c(c1)OCO2)CN1CCC(Nc2nccc(C(F)(F)F)n2)CC1` (centres unmarked) [CU080], in data set [1], the “5 uM Avg Antibacterial Score” value was determined as 96 and the “25 uM Avg Antibacterial Score” value is 7.4. Moreover, in the data set with RAW 264.7 macrophages, the “5 uM Avg Cell # Score” value was determined as 86 and the “25 uM Avg Cell # Score” value was found to be 91.
As for `COc1cccc(OCC(O)CN2CCC(Nc3nccc(C(F)(F)F)n3)CC2)c1` (centres unmarked) [CU081], in data set [1], the “5 uM Avg Antibacterial Score” value is reported as 102 and the “25 uM Avg Antibacterial Score” value was determined as 17. Further, in the data set on RAW 264.7 macrophages, the “5 uM Avg Cell # Score” value worked out at 94 and the “25 uM Avg Cell # Score” value is given as 93.
For the compound `N#Cc1cccc(OCC(O)CN2CCC(Nc3nccc(C(F)(F)F)n3)CC2)c1` (centres unmarked) [CU082], in data set [1], the “5 uM Avg Antibacterial Score” value is reported as 100 and the “25 uM Avg Antibacterial Score” value is listed as 19. Also, in the data set with RAW 264.7 macrophages, the “5 uM Avg Cell # Score” value was determined as 89 and the “25 uM Avg Cell # Score” value turned out to be 85.
In the same order, the values of `OC(COc1ccccc1)CN1CCC(Nc2nccc(C(F)(F)F)n2)C1` (centres unmarked) [CU083] are 100, 32, 89 and 95.
For `OC(COc1ccccc1Cl)CN1CCC(Nc2nccc(C(F)(F)F)n2)C1` (centres unmarked) [CU084], in data set [1], the “5 uM Avg Antibacterial Score” value is listed as 93 and the “25 uM Avg Antibacterial Score” value was “Toxic”. In the data set with RAW 264.7 macrophages, the “5 uM Avg Cell # Score” value is listed as 96 and the “25 uM Avg Cell # Score” value was 46.
